From article PMC9780064, “Structural analysis of cannabinoids against EGFR-TK leads a novel target against EGFR-driven cell lines” (Current Research in Pharmacology and Drug Discovery, 2022)

Columns and labels:
[1] = biological target: T1, EGFR-TK (tyrosine kinase domain of EGFR) (Homo sapiens, UniProt P00533); assay: ADP-Glo kinase assay, poly(Glu:Tyr) substrate; assay type: biochemical; details: read-out: EGFR-TK inhibition IC50
T1 construct: cloned into pCold I, expressed in E. coli Rosetta (DE3); DEAE, Resource Q and Superdex 200 purification; immobilised by amine coupling for SPR
T1 sequence (P00533 696-1022 limits assumed): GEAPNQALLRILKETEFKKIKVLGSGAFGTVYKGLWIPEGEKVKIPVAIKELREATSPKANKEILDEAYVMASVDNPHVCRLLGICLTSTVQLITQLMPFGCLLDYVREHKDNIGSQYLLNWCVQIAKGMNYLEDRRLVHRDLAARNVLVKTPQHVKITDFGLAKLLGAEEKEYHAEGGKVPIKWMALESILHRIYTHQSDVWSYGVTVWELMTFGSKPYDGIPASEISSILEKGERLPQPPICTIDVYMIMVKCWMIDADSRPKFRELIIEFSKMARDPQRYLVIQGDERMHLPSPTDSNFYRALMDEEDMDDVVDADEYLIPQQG

[2] = biological target: T1, EGFR-TK (tyrosine kinase domain of EGFR); assay: SPR (OpenSPR), immobilised EGFR-TK, […] Langmuir kinetic fit; assay type: binding

C=C(C)[C@@H]1CCC(C)=C[C@H]1c1c(O)cc(CCCCC)cc1O [CBD]
IC50 [1]: 32.6 ± 3.16 nM
Kd [2]: 8350 nM

CCCCCc1cc(O)c(C/C=C(\C)CCC=C(C)C)c(O)c1 [CBG]
IC50 [1]: 29.9 ± 2.1 nM
Kd [2]: 5610 nM

CCCCCc1cc(O)c2c(c1)OC(C)(C)c1ccc(C)cc1-2 [CBN]
IC50 [1]: 78.8 ± 2.2 nM
Kd [2]: 32100 nM
